In patent publication US8937065B2, “Compositions and methods for modulating a kinase” (Clevexel Pharma, priority 2011, dated 2015):
≈ marks a conversion by molar mass, not a printed value. Where two headings read alike, the source gives them in different places.

Tests used:
JAK3 pathway = assay: Cell based JAK3 pathway inhibition (STAT6-bla RA1 cells, IL-4 activated); conditions: for IC50: STAT6-bla RA1 cells, IL-4 at EC80; for Emax: cell based JAK3 pathway inhibition, maximal inhibition, read-out: Max % Inh
Protocol: 32 μL of the cell suspension (25,000 cells) was added to each well of a 384-well TC-Treated assay plate. Cells in Assay Media were incubated for 16-24 hours in the plate at 37° C./5% CO2 in a humidified incubator. 4 μL of a 10× serial dilution of a compound of the invention was added to appropriate wells of the plate and pre-incubated at 37° C./5% CO2 in a humidified incubator with cells for 30 minutes. 4 μL of 10× control activator IL-4 at the predetermined EC80 concentration was added to wells containing the compound of the invention. The plate was incubated for 5 hours at 37° C./5% CO2 in a humidified incubator. 8 μL of 1 μM Substrate Loading Solution was added to each well and the plate was incubated for 2 hours at room temperature. The plate was read on a fluorescence plate reader.

Daudi cells = assay: Daudi CTG assay (Daudi proliferation, 72 hr, Cell Titer Glo); type: cell-based; conditions: Homo sapiens
Protocol: The compounds of the invention were tested on Daudi proliferation according to the procedure in Example 4 (for Daudi cells): Proliferation of RS4; 11, Ramos, Namalwa, RL, Molt-4 and Daudi cells. The compounds of the invention were tested on Daudi proliferation (72 hr), 3 fold dilution, and 9 points in duplicates. The top concentration for compounds of the invention was 10 uM; reference compound 7A top concentration was 10 uM; and Paclitaxel was 500 nM. Cell viability was determined using the Cell Titer Glo (CTG) reagent and detected by EnVision. EC50s were calculated by Prism 5.
The CellTiter-Glo™ Luminescent Cell Viability Assay uses ATP, a required co-factor of the luciferase reaction, as an indicator of metabolically active cells. The enzyme luciferase acts on luciferin in the presence of Mg^2+and ATP to produce oxyluciferin and to release energy in the form of luminescence. Since the luciferase reaction requires ATP, the luminescence produced is proportional to the amount of ATP present, an indicator of cellular metabolic activity.

JAK3 = target: T1, JAK3 (Homo sapiens, UniProt P52333); assay: JAK3 enzymatic activity assay (Z'-LYTE Biochemical Kinase Assay, 2 hr preincubation at 4° C.); conditions: cell free, 1% DMSO, read-out: JAK3 activity cell free (2 hr preincubation at (4° C.) Kj)
T1 construct: purchased Invitrogen, Madison, Wis
T1 sequence (P52333 1-1124): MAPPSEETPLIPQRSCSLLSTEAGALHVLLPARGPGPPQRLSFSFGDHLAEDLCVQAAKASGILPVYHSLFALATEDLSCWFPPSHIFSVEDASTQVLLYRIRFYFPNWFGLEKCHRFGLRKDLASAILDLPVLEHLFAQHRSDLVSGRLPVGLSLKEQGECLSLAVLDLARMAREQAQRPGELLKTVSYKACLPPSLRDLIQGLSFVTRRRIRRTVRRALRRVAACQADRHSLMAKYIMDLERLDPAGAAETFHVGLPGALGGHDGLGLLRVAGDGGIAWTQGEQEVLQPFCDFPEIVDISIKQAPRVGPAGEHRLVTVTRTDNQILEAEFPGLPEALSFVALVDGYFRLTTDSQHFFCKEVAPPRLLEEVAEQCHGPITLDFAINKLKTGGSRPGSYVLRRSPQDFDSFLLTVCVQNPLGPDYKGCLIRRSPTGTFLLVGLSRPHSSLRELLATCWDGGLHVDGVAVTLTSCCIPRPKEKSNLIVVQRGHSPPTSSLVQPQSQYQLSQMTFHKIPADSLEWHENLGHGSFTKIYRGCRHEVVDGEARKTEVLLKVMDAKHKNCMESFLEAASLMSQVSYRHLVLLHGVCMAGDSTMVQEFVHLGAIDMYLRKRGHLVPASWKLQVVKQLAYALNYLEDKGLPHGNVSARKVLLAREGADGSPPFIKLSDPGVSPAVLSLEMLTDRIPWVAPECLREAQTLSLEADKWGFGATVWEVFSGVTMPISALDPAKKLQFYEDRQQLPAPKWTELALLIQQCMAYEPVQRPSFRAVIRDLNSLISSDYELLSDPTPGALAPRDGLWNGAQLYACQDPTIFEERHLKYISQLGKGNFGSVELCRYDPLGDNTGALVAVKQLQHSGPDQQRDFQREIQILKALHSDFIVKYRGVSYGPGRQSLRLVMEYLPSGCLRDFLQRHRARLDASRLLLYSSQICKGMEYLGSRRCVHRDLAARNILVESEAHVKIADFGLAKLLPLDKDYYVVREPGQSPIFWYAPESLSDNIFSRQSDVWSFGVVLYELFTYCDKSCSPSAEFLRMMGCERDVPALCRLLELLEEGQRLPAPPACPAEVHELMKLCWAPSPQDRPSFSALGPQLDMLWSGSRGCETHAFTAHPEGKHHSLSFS
Protocol: The assays were performed according to manufacturer's protocols, except that prior to the kinase reaction they were pre-incubated for 2 hours at 4° C., in order to be able to assay for time-dependent inhibition.
In addition to the compound, each 10 μL JAK3 kinase reaction contained 0.43-1.89 ng JAK3 and 2 μM peptide substrate in 50 mM HEPES (pH 7.5), 0.01% BRIJ-35, 10 mM MgCl2 and 1 mM EGTA. The kinase reaction was allowed to proceed for 1 hour.

physchem = conditions: pH 7.4, aqueous buffer, thermodynamic from solid
Protocol: The test concentration was 100 μM (0% of DMSO for test compounds, 1% of DMSO for reference compounds). The test system was a 100 mM phosphate buffer (pH 7.4). Sample size was duplicates (n=2) and the bioanalytical method was LC-UV (Agilent-1200). Mobile phase A: H2O-1% TFA, B: MeOH-1% TFA; column Boston Symmetrix ODS-H (2.1×50 mm, 5 μm); LC conditions 0.4 mL/Min.
Assay Procedure • 1. For reference compounds: • Add 8 μL of 10 mM DMSO stock solution into 792 μL of 100 mM phosphate buffer (n=2). Final conc.=100 μM (1% of DMSO)
For test compounds: • Add 8 μL of 10 mM DMSO stock solution into the tubes (n=2). • Dry the samples under nitrogen. • Add 800 μL of 100 mM phosphate buffer into the tubes. Final conc.=100 μM (0% of DMSO) • 2. Sample tubes are shaken for 1 hour (1000 rpm) at room temperature and 37° C. • 3. Samples are centrifuged (10 min-12000 rpm) to precipitate un-dissolved particles. • 4. Supernatants are transferred to new tubes • 5. Concentrations of the supernatants after centrifugation are determined by LC-UV detection.

[1] = Daudi CTG assay, Daudi proliferation 72 hr, Cell Titer Glo, top concentration 10 uM (Paclitaxel 500 nM), read-out: IC50

Row | SMILES | IC50 (JAK3 pathway) [µM] | Ki (JAK3) [µM] | Emax (JAK3 pathway) [%] | further results
1 | NC(=O)c1cc(-c2csc(-c3cccc(NC(=O)CN4CCOCC4)c3)n2)c[nH]1 [29A] | > 10 | – | – | IC50 (Daudi cells; [1]): > 10 µM
2 | CN1CCN(CC(=O)Nc2cccc(-c3nc(-c4c[nH]c(C(=O)N5CCCC5)c4)cs3)c2)CC1 [17A] | 0.11 to 1 | > 10 | – | –
3 | O=C(c1cc(-c2csc(Nc3ccc(F)cc3)n2)c[nH]1)N1CCCC1 [13A] | 0.11 to 1 | – | 78 | –
4 | O=C(Nc1cccc(-c2nc(-c3c[nH]c(C(=O)N4CCCC4)c3)cs2)c1)N1CCOCC1 [28A] | 0.11 to 1 | – | 82.3 | –
5 | CN1CCN(CC(=O)Nc2cccc(-c3nc(-c4c[nH]c(C(=O)N(C)C)c4)cs3)c2)CC1 [25A] | > 10 | – | – | –
6 | CN(C)C(=O)c1cc(-c2csc(-c3cccc(NC(=O)CN4CCOCC4)c3)n2)c[nH]1 [23A] | 1.1 to 10 | – | 75.1 | –
7 | CC(=O)N1CCN(c2ccc(OCC3COC(Cn4ccnc4)(c4ccc(Cl)cc4Cl)O3)cc2)CC1 (centres unmarked) [Ketoconazole, reference compound] | – | – | – | solubility at 1 h (physchem; Solubility (μM) Mean): 15.9 µM (≈ 8.45 µg/mL); solubility at 1 h (physchem; Solubility in PBS): 15.9 µM (≈ 8.45 µg/mL)
8 | CC(=O)O[C@H]1C(=O)[C@@]2(C)[C@H]([C@H](OC(=O)c3ccccc3)[C@]3(O)C[C@H](OC(=O)[C@H](O)[C@@H](NC(=O)c4ccccc4)c4ccccc4)C(C)=C1C3(C)C)[C@]1(OC(C)=O)CO[C@@H]1C[C@@H]2O [Paclitaxel, paclitaxel, reference compound] | – | – | – | IC50 (Daudi cells; Daudi, read-out: Daudi CTG assay IC50, historical data): 0.00469 µM; IC50 (Daudi cells; Daudi proliferation 72 hr, control compounds, read-out: Daudi CTG assay control IC50): 0.00449 µM
9 | O=C(c1cc(-c2csc(NCc3ccco3)n2)c[nH]1)N1CCCC1 [5A] | – | – | 68 | –
10 | O=C(c1cc(-c2csc(Nc3ccccc3)n2)c[nH]1)N1CCCC1 [12A] | 0.11 to 1 | – | 81 | –
11 | CC(=O)c1ccc(Nc2nc(-c3c[nH]c(C(=O)N4CCCC4)c3)cs2)cc1 [14A] | – | 1.1 to 10 | – | –
12 | O=C(CN1CCOCC1)Nc1cccc(-c2nc(-c3c[nH]c(C(=O)NC4CC4)c3)cs2)c1 [27A] | 1.1 to 10 | – | 100 | –
13 | O=C(c1cc(-c2csc(NCc3ccc(F)cc3)n2)c[nH]1)N1CCCC1 [47A] | – | 1.1 to 10 | – | –
14 | COc1ccc(-c2nc(-c3c[nH]c(C(=O)N4CCCC4)c3)cs2)cc1NC(=O)CN1CCOCC1 [32A] | 0.11 to 1 | – | 71.7 | IC50 (Daudi cells; [1]): 0.11 to 1 µM
15 | Cc1ccccc1-c1nc(-c2c[nH]c(C(=O)N3CCCC3)c2)cs1 [64A] | – | 1.1 to 10 | – | –
16 | COc1ccc(-c2nc(-c3c[nH]c(C(=O)N4CCCC4)c3)cs2)cc1NC(=O)CN1CCCCC1 [33A] | 0.11 to 1 | – | 69.8 | IC50 (Daudi cells; [1]): 0.11 to 1 µM
17 | CN(C)CC(=O)Nc1cccc(-c2nc(-c3c[nH]c(C(=O)N4CCCC4)c3)cs2)c1 [26A] | 0.11 to 1 | – | 74.6 | –
18 | Cc1csc(Cc2nc(-c3c[nH]c(C(=O)N4CCCC4)c3)cs2)n1 [8A] | – | 1.1 to 10 | – | –
19 | O=C(c1cc(-c2csc(NC3CCCC3)n2)c[nH]1)N1CCCC1 [45A] | – | 1.1 to 10 | – | –

Second part, led by results:

Row | IC50 (JAK3 pathway) [µM] | Ki (JAK3) [µM] | SMILES | Emax (JAK3 pathway) [%] | further results
20 | – | 1.1 to 10 | CCOc1ccc(-c2nc(-c3c[nH]c(C(=O)N4CCCC4)c3)cs2)cc1OC [9A] | – | –
21 | 1.1 to 10 | 1.1 to 10 | O=C(c1cc(-c2csc(NCc3ccco3)n2)c[nH]1)N1CCCC1 [6A] | – | –
22 | 0.11 to 1 | – | CC(=O)Nc1cccc(-c2nc(-c3c[nH]c(C(=O)N4CCCC4)c3)cs2)c1 [21A] | 84.4 | –
23 | 1.1 to 10 | – | CN(C)C(=O)c1cc(-c2csc(-c3cccc(NC(=O)CN4CCCCC4)c3)n2)c[nH]1 [24A] | 74.7 | –
24 | – | 1.1 to 10 | O=C(c1cc(-c2csc(Nc3ccc(N4CCOCC4)cc3)n2)c[nH]1)N1CCCC1 [19A] | – | –
25 | 1.1 to 10 | – | O=C(CN1CCOCC1)Nc1ccc(-c2nc(-c3c[nH]c(C(=O)N4CCCCC4)c3)cs2)cc1 [31A] | 76.8 | IC50 (Daudi cells; [1]): 1.1 to 10 µM
26 | – | 1.1 to 10 | O=C(c1cc(-c2csc(Nc3cccc(C(F)(F)F)c3)n2)c[nH]1)N1CCCC1 [39A] | – | –
27 | – | 1.1 to 10 | COc1cccc(-c2nc(-c3c[nH]c(C(=O)N4CCCC4)c3)cs2)c1 [10A] | – | –
28 | 0.11 to 1 | – | O=C(CN1CCOCC1)Nc1ccc(-c2nc(-c3c[nH]c(C(=O)N4CCCC4)c3)cs2)cc1 [22A] | 100 | –
29 | – | 1.1 to 10 | O=C(c1cc(-c2csc(Nc3c(F)cc(F)cc3F)n2)c[nH]1)N1CCCC1 [18A] | – | –
30 | – | > 10 | CN(c1ccccc1)c1nc(-c2c[nH]c(C(=O)N3CCCC3)c2)cs1 [15A] | – | –
31 | 0.11 to 1 | – | O=C(CN1CCCCC1)Nc1cccc(-c2nc(-c3c[nH]c(C(=O)N4CCCC4)c3)cs2)c1 [20A] | 80.2 | –
32 | 0.11 to 1 | – | O=C(c1cc(-c2csc(-c3ccc(Cl)cc3)n2)c[nH]1)N1CCCC1 [61A] | 60 | –
33 | 0.11 to 1 | – | Cc1ccc(-c2nc(-c3c[nH]c(C(=O)N4CCCC4)c3)cs2)c(C)c1 [63A] | 63 | –
34 | 0.11 to 1 | – | CCN(CC)CC(=O)Nc1cc(-c2nc(-c3c[nH]c(C(=O)N4CCCC4)c3)cs2)ccc1OC [34A] | 79.7 | IC50 (Daudi cells; [1]): 0.11 to 1 µM
35 | 0.11 to 1 | – | O=C(c1cc(-c2csc(-c3ccccn3)n2)c[nH]1)N1CCCC1 [53A] | 72 | –
36 | 1.1 to 10 | – | CCN(CC)C(=O)c1cc(-c2csc(-c3cccc(NC(=O)CN4CCOCC4)c3)n2)c[nH]1 [30A] | 98.2 | IC50 (Daudi cells; [1]): 1.1 to 10 µM
37 | 0.11 to 1 | – | O=C(CN1CCOCC1)Nc1cc(-c2nc(-c3c[nH]c(C(=O)N4CCCC4)c3)cs2)ccc1F [35A] | 78.9 | IC50 (Daudi cells; [1]): 0.11 to 1 µM
38 | – | > 10 | O=C(Nc1cccc(-c2nc(-c3c[nH]c(C(=O)N4CCCC4)c3)cs2)c1)c1ccccc1 [16A] | – | –
